# Data from patent publication US20240239752A1, “BICYCLIC HETEROAROMATIC INHIBITORS OF KLK5” (BioCryst Pharmaceuticals, Inc., priority 2021, published 2024).
# Biological target: T1, recombinant human KLK5 (Homo sapiens, UniProt Q9Y337)
# T1 construct: purchased Novoprotein or R&D Systems C415 or 1108-SE
# T1 sequence (Q9Y337 23-293): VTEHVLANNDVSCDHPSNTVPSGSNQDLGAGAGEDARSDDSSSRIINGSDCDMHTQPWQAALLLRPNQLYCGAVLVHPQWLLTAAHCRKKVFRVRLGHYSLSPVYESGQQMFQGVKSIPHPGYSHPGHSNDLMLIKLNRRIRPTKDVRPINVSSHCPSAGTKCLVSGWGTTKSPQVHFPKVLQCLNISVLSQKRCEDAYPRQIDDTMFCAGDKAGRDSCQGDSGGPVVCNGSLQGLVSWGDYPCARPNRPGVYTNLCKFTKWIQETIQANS
# Test: Kallikrein (KLK) 5 enzymatic assay (Boc-VPR-AMC fluorogenic substrate)
# Type: biochemical
# Conditions: recombinant human KLK5 0.1 μg/well, Boc-VPR-AMC 100 μM, pH 7.5, room temperature, 1% DMSO; tested a minimum of three times
# In short: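 Recombinant human KLK5 (0.1 μg/well) was preincubated with compound at room temperature in 0.1 M NaH2PO4, pH 7.5, 1% DMSO, then started with 100 μM Boc-VPR-AMC. The rate was followed at 380/460 nm, and IC50 came from percent inhibition relative to enzyme alone, with at least three runs.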
row,SMILES,IC50 [µM]
1,"COC(=O)N1CCC2(CC1)CC(Oc1cc(C#N)ccc1CC(=O)O)c1cc(-c3cccc4c(N)nccc34)ccc12 (centres unmarked) [Compound 411b, 2-(2-((5-(1-aminoisoquinolin-5-yl)-1′-(methoxycarbonyl)-2,3-dihydrospiro[indene-1,4′-piperidin]-3-yl)oxy)-4-cyanophenyl)acetic acid]",< 1
2,"CC(C)n1nc(COc2ccccc2CC(=O)O)c2cc(-c3ccc4nc(N)ccc4c3)ccc21 [Compound 35c, 2-(2-((5-(2-aminoquinolin-6-yl)-1-isopropyl-1H-indazol-3-yl)methoxy)phenyl)acetic acid]",> 10
3,"CC(C)n1nc(COc2ccccc2CC(=O)O)c2cc(-c3cccc4c(N)nccc34)ccc21 [Compound 40b, 2-(2-((5-(1-aminoisoquinolin-5-yl)-1-isopropyl-1H-indazol-3-yl)methoxy)phenyl)acetic acid]",< 1
4,"N#Cc1cccc(OCc2nn(C3CCOC3)c3ccc(-c4cccc5c(N)nccc45)cc23)c1CC(=O)O (centres unmarked) [Compound 293b, 2-(2-((5-(1-aminoisoquinolin-5-yl)-1-(tetrahydrofuran-3-yl)-1H-indazol-3-yl)methoxy)-6-cyanophenyl)acetic acid]",< 1
5,"CC(C)n1nc(COc2ccccc2CC(=O)O)c2cc(-c3ccc4c(N)cccc4c3)ccc21 [Compound 43d, 2-(2-((5-(5-aminonaphthalen-2-yl)-1-isopropyl-1H-indazol-3-yl)methoxy)phenyl)acetic acid]",> 10
6,"N#Cc1cc(-c2cccc3c(N)nccc23)cc2c(COc3ccccc3CC(=O)O)nn(C3CCCCO3)c12 (centres unmarked) [Compound 108c, 2-(2-((5-(1-aminoisoquinolin-5-yl)-7-cyano-1-(tetrahydro-2H-pyran-2-yl)-1H-indazol-3-yl)methoxy)phenyl)acetic acid]",< 1
7,"Nc1nccc2ccc(-c3ccc4c(c3)c(COc3ccccc3CC(=O)O)nn4C3CN(CCO)C3)cc12 [Compound 148b, 2-(2-((5-(1-aminoisoquinolin-7-yl)-1-(1-(2-hydroxyethyl)azetidin-3-yl)-1H-indazol-3-yl)methoxy)phenyl)acetic acid]",< 1
8,"Cc1cc(-c2ccc3ccnc(N)c3c2)cc2c1CCC2Oc1ccccc1CC(=O)O (centres unmarked) [Compound 205e, 2-(2-((6-(1-aminoisoquinolin-7-yl)-4-methyl-2,3-dihydro-1H-inden-1-yl)oxy)phenyl)acetic acid]",1 to 10
9,"COc1cccc(OCc2nn(C3CCC3)c3ccc(-c4ccc5ccnc(N)c5c4)cc23)c1CC(=O)O [Compound 172d, 2-(2-((5-(1-aminoisoquinolin-7-yl)-1-cyclobutyl-1H-indazol-3-yl)methoxy)-6-methoxyphenyl)acetic acid]",1 to 10
10,"COc1c(-c2ccc3nn(C4CCC4)c(COc4ccccc4CC(=O)O)c3c2)ccnc1C(=N)N [Compound 24b, 2-(2-((5-(2-carbamimidoyl-3-methoxypyridin-4-yl)-2-cyclobutyl-2H-indazol-3-yl)methoxy)phenyl)acetic acid]",< 1
11,"Nc1nccc2ccc(-c3ccc4nn(C5CCOC5)c(COc5ccccc5CC(=O)O)c4c3)cc12 (centres unmarked) [Compound 109b, 2-(2-((5-(1-aminoisoquinolin-7-yl)-2-(tetrahydrofuran-3-yl)-2H-indazol-3-yl)methoxy)phenyl)acetic acid]",1 to 10
12,"Nc1nccc2c(-c3ccc4c(c3)c(COc3ccccc3CC(=O)O)nn4C3CCCOC3)cccc12 (centres unmarked) [Compound 284b, 2-(2-((5-(1-aminoisoquinolin-5-yl)-1-(tetrahydro-2H-pyran-3-yl)-1H-indazol-3-yl)methoxy)phenyl)acetic acid]",< 1
13,"CCOC(=O)N1CCC(n2nc(COc3ccccc3CC(=O)O)c3cc(-c4ccc5ccnc(N)c5c4)ccc32)C1 (centres unmarked) [Compound 310c, 2-(2-((5-(1-aminoisoquinolin-7-yl)-1-(1-(ethoxycarbonyl)pyrrolidin-3-yl)-1H-indazol-3-yl)methoxy)phenyl)acetic acid]",< 1
14,"Cc1cccc(O[C@@H]2CCc3ccc(-c4ccc5ccnc(N)c5c4)cc32)c1CC(=O)O [Compound 260b, (R)-2-(2-((6-(1-aminoisoquinolin-7-yl)-2,3-dihydro-1H-inden-1-yl)oxy)-6-methylphenyl)acetic acid]",< 1
15,"COC(=O)N1CCC2(CC1)CC(Oc1ccccc1CC(=O)O)c1cc(-c3cccc4c(N)nccc34)ccc12 (centres unmarked) [Compound 371b, 2-(2-((5-(1-aminoisoquinolin-5-yl)-1′-(methoxycarbonyl)-2,3-dihydrospiro[indene-1,4′-piperidin]-3-yl)oxy)phenyl)acetic acid]",< 1
16,"COc1cc(C(=N)N)cc(-c2ccc3c(c2)c(COc2ccccc2CC(=O)O)nn3C(C)C)c1 [Compound 82e, 2-(2-((5-(3-carbamimidoyl-5-methoxyphenyl)-1-isopropyl-1H-indazol-3-yl)methoxy)phenyl)acetic acid]",> 10

row,SMILES,IC50 [µM]
1,"N=C(N)c1cccc(-c2cc3c(COc4ccccc4C(O)C(=O)O)cccc3o2)c1 (centres unmarked) [Compound 268d, 2-(2-((2-(3-carbamimidoylphenyl)benzofuran-4-yl)methoxy)phenyl)-2-hydroxyacetic acid]",1 to 10
2,"N=C(N)c1cccc(-c2ccc3c(c2)c(COc2ccccc2CC(=O)O)nn3C2CCCCC2)c1 [Compound 226b, 2-(2-((5-(3-carbamimidoylphenyl)-1-cyclohexyl-1H-indazol-3-yl)methoxy)phenyl)acetic acid]",< 1
3,"Nc1nccc2c(-c3ccc4c(c3)c(COc3ccccc3CC(=O)O)nn4C3CCN(CC(=O)O)C3)cccc12 (centres unmarked) [Compound 305b, 2-(2-((5-(1-aminoisoquinolin-5-yl)-1-(1-(carboxymethyl)pyrrolidin-3-yl)-1H-indazol-3-yl)methoxy)phenyl)acetic acid]",< 1
4,"Nc1nccc2ccc(-c3ccc4c(c3)[C@@H](Oc3ccccc3CC(=O)O)CC4)cc12 [Compound 221d, (S)-2-(2-((6-(1-aminoisoquinolin-7-yl)-2,3-dihydro-1H-inden-1-yl)oxy)phenyl)acetic acid]",1 to 10
5,"CC(C)n1nc(COc2ccccc2CC(=O)O)c2cc(-c3cccc4c3OCCC4N)ccc21 (centres unmarked) [Compound 213c, 2-(2-((5-(4-aminochroman-8-yl)-1-isopropyl-1H-indazol-3-yl)methoxy)phenyl)acetic acid]",> 10
6,"Cc1cccc(OC2CC3(CCN(C(=O)OCC(C)C)CC3)c3ccc(-c4cccc5c(N)nccc45)cc32)c1CC(=O)O (centres unmarked) [Compound 451b, 2-(2-((5-(1-aminoisoquinolin-5-yl)-1′-(isobutoxycarbonyl)-2,3-dihydrospiro[indene-1,4′-piperidin]-3-yl)oxy)-6-methylphenyl)acetic acid]",< 1
7,"CC(C)n1nc(COc2ccccc2CC(=O)O)c2cc(-c3cccc4cnc(N)cc34)ccc21 [Compound 56c, 2-(2-((5-(3-aminoisoquinolin-5-yl)-1-isopropyl-1H-indazol-3-yl)methoxy)phenyl)acetic acid]",> 10
8,"Nc1nccc2ccc(-c3ccc4c(c3)C(COc3ccccc3CC(=O)O)=CC43CCCC3)cc12 [Compound 401b, 2-(2-((5′-(1-aminoisoquinolin-7-yl)spiro[cyclopentane-1,1′-inden]-3′-yl)methoxy)phenyl)acetic acid]",< 1
9,"CC(C)COC(=O)N1CC[C@H](n2nc(COc3ccccc3CC(=O)O)c3cc(-c4cccc5c(N)nccc45)ccc32)C1 [Compound 361b, (S)-2-(2-((5-(1-aminoisoquinolin-5-yl)-1-(1-(isobutoxycarbonyl)pyrrolidin-3-yl)-1H-indazol-3-yl)methoxy)phenyl)acetic acid]",< 1
10,"CC(C)n1nc(COc2ccccc2CC(=O)O)c2cc(-c3ccc4ccc(N)nc4c3)ccc21 [Compound 50c, 2-(2-((5-(2-aminoquinolin-7-yl)-1-isopropyl-1H-indazol-3-yl)methoxy)phenyl)acetic acid]",> 10
11,"CC(C)CCN1CC(Cn2nc(COc3ccccc3CC(=O)O)c3cc(-c4cccc5c(N)nccc45)ccc32)C1 [Compound 308b, 2-(2-((5-(1-aminoisoquinolin-5-yl)-1-((1-isopentylazetidin-3-yl)methyl)-1H-indazol-3-yl)methoxy)phenyl)acetic acid]",< 1
12,"Nc1nccc2ccc(-c3ccc4c(c3)c(COc3ccccc3CC(=O)O)nn4C3CCOC3)cc12 (centres unmarked) [Compound 250b, 2-(2-((5-(1-aminoisoquinolin-7-yl)-1-(tetrahydrofuran-3-yl)-1H-indazol-3-yl)methoxy)phenyl)acetic acid]",< 1
13,"CC[C@@H](C)n1nc(COc2ccccc2CC(=O)O)c2cc(-c3ccc4ccnc(N)c4c3)ccc21 [Compound 190e, (R)-2-(2-((5-(1-aminoisoquinolin-7-yl)-1-(sec-butyl)-1H-indazol-3-yl)methoxy)phenyl)acetic acid]",< 1
14,"COc1c(-c2ccc3c(c2)c(COc2ccccc2CC(=O)O)nn3C2CCCC2)ccnc1CN [Compound 327d, 2-(2-((5-(2-(aminomethyl)-3-methoxypyridin-4-yl)-1-cyclopentyl-1H-indazol-3-yl)methoxy)phenyl)acetic acid]",< 1
15,"CC(C)n1nc(COc2ccccc2CC(=O)O)c2cc(-c3ccc4[nH]nc(N)c4c3)ccc21 [Compound 32c, 2-(2-((3′-amino-1-isopropyl-1H, 1′H-[5,5′-biindazol]-3-yl)methoxy)phenyl)acetic acid]",> 10
16,"COc1c(C(=N)N)cccc1-c1ccc2c(c1)c(COc1ccccc1CC(=O)O)nn2C1CCC1 [Compound 238d, 2-(2-((5-(3-carbamimidoyl-2-methoxyphenyl)-1-cyclobutyl-1H-indazol-3-yl)methoxy)phenyl)acetic acid]",< 1
